Results on three molecules are retold here after paper PMC9371589 (Behavioural pharmacology, 2022).

Common to all, as to type: in vivo, rat
Series [1] concerns male Sprague-Dawley rats. Put plainly: Rotarod motor coordination. As to conditions: 10 mg/kg i.p., 30 minutes before test; vehicle 193.6 ± 14.9.
Series [2] relates to male Sprague-Dawley rats. Put plainly: Complete Freund's Adjuvant. As to conditions: 48 hours after CFA injection (24 hours post-treatment).
Series [3] relates to male Sprague-Dawley rats. As to the kind of experiment: Brennan model of incisional pain.
For series [4], the system named is male Sprague-Dawley rats. Put plainly: Gastrointestinal transit of a charcoal meal. As to conditions: 30 mg/kg; vehicle 0.62 ± 0.02.

`CN1C(=O)CN=C(c2ccccc2)c2cc(Cl)ccc21` [Diazepam, diazepam]: in the series with male Sprague-Dawley rats [1], the “time spent on the rotarod” value worked out at 60.1 ± 23.7 s.
As for `O=C(O)Cc1ccccc1Nc1c(Cl)cccc1Cl` [Diclofenac, diclofenac], the effect on edema result in the series with male Sprague-Dawley rats [2] is “decreased edema”.
Regarding `CN1CC[C@]23c4c5ccc(O)c4O[C@H]2[C@@H](O)C=C[C@H]3[C@H]1C5` [morphine], in the series with male Sprague-Dawley rats [3] (5 mg/kg s.c. once a day for 7 consecutive days), the “effect of daily administration on anti-hyperalgesic effect (tolerance)” value is recorded as “blunted its effects on hyperalgesia”. Also, the “duration of anti-hyperalgesic effect” value in the series on male Sprague-Dawley rats [3] (after single s.c. administration) is < 6 h. Moreover, the “relative distance traveled (gastrointestinal transit)” value in the series on male Sprague-Dawley rats [4] stood at 0.22 ± 0.02.
